Measured values taken from US20170226507A1, “COORDINATE CONTROL OF PATHOGENIC SIGNALING BY THE MIR-130/301 FAMILY IN PULMONARY HYPERTENSION AND FIBROPROLIFERATIVE DISEASES” (The Brigham and Women's Hospital, Inc., priority 2014, published 2017).

Key:
Format in all cases: cell-based, human
PAECs = assay: Caspase 3/7 assay, PAECs
Description: (§1) Caspase 3,7 activity was quantified using the Caspase-Glo 3/7 Assay (Promega), according to manufacturer's instructions. Briefly, cells were plated in triplicate in 96-well plates and transfected with the appropriate oligonucleotide. Forty-eight hours after transfection, cells were cultured in the presence or absence of serum for twenty-four hours. Cells were then incubated for 1 h with the caspase substrates, and luminescence was quantified.

STAT3 = STAT3 phosphorylation in PASMCs (conditioned media from PAECs or endothelin-1; immunoblot); settings: conditioned media from transfected PAECs (mimic: normoxic, tiny-LNA: hypoxic conditioning)
Description: (FIG. 40A) A schematic diagram of co-culture experiments: conditioned media from transfected PAECs (miRNA, anti-miRNA, tiny-LNA or siRNA under normoxic or hypoxic conditions) were filtered and applied onto naïve PASMCs cultured in matrigel. At specific times, PASMCs or PASMC-matrigel cultures were arrested and analyzed for STAT3 activation (phosphorylation) or contraction, respectively.
50000 PASMC were embedded in 100 ul of matrix gel as previous described (Gagiolli et al) and plated into well of a 96 well plate. After 1 h at 37° C., these matrices were overlaid with 100 ul of conditioned PAECs serum-free medium (transfected with siRNA, miRNA or anti-miRNA and supplemented with Ambriesentan 10 uM). Every 12 h, medium was changed and at day 4 the gels were photographed and the relative diameter of the well and the gel were measured using ImageJ. The percentage contraction was calculated using the formula 100*(well diameter−gel diamter)/well diameter. For the co-culture experiment, conditioned media from PAEC transfected as indicated were applied on PASMCs or Fibroblast previously starved (24 h). Cells were collected at different time and analyzed by western blotting.
(§2) Cells were lysed in RIPA buffer (Santa Cruz Biotechnology) and the protein concentration determined using a Bradford assay (Biorad). Protein lysate ([…]) were resolved by SDS-PAGE and transferred onto a PVDF membrane (Biorad). Membranes were blocked in 5% non-fat milk in TN buffer (50 mM Tris-HCl pH 7.4, 150 mM NaCl) and incubated in the presence of the primary and then secondary antibodies. After washing in TN buffer containing 0.1% Tween, immunoreactive bands were visualized with the ECL system (Amersham Biosciences). […] Primary antibodies for STAT3 (#9139) and P-STAT3 (Tyr-705; #9145) were purchased from Cell Signaling. Primary antibodies against actin (ab 3280), was obtained from Abcam. Appropriate secondary antibodies (anti-rabbit and anti-mouse) coupled to HRP were used (Santa Cruz Biotechnology).

PASMCs [1] = assay: Proliferation of PASMCs (cell counting, BrdU incorporation, PCNA)
Excerpt: Pre-miRNA oligonucleotides (pre-miR-130a, pre-miR-204, pre-miR-424, and pre-miR-503 and negative control pre-miR-NC1 and premiR-NC2, Life Technologies), anti-miRNAs oligonucleotides (anti-miR-130a and anti-miR-NC, ThermoScientific), tiny LNA oligonucleotides (tiny-130: 5′-[…]-3′ (SEQ ID NO: 3), and tiny-NC 5′-[…]-3′ (SEQ ID NO: 51), Exiqon), siRNAs (PPARγ and scrambled control, Santa Cruz Biotechnology; HIF-1α, HIF-2α, and scrambled control, Life Technologies) were commercially purchased. PAECs and PASMCs were plated and transfected 24 h later at 70-80% confluence using pre-miRNA (5 nM), anti-miRNA (20 nM), tiny-LNA (20 nM) or siRNA (25 nM) with Lipofectamine 2000 reagent (Life Technologies), according to the manufacturers' instructions.
Exponentially growing cells were transfected, collected at the indicated times and counted.
as §2, with “3280), α-smooth-muscle-actin (ab 32575), CD31 (ab28364), and PCNA (ab 29) were” for “3280), was”

PASMCs [2] = assay: Caspase 3/7 assay, PASMCs
Description: as §1

“tiny-LNA-130: fully LNA-modified tiny LNA oligonucleotide 5′-ATTGCACT-3′ (SEQ ID NO: 3) complementary to the seed region of the miR-130/301 family (all LNA, backbone and methylation of C not given here)” was tested, and the “caspase 3/7 activity” value (PAECs; 24 h serum deprivation) was “partially protected cells from caspase 3/7 induction”, the “caspase 3/7 activity” value (PAECs; serum-replete conditions) was “No significant modulation” and the “STAT3 phosphorylation in PASMCs” value (STAT3) was “abrogated”. For the same substance, the number of cells (PASMCs [1]; counted each day during 3 days) was “greater decrease in the number of cells compared with anti-miR-130a”, the “BrdU incorporation (proliferation)” value (PASMCs [1]; exponentially growing, BrdU pulse 1 h) was “greater decrease in proliferation compared with anti-miR-130a” and the PCNA expression (PASMCs [1]; immunoblot 48 hours after transfection) was “more substantial decrease”. The “caspase 3/7 activity” value (PASMCs [2]; 24 h serum deprivation) was “no significant modulation” and the “caspase 3/7 activity” value (PASMCs [2]; serum-replete conditions) was “No significant modulation”.
